# Results taken from patent EP1144365B1 (TANABE SEIYAKU CO., LTD., priority 1998, dated 2000).
# Where a name gives a salt, the structure may show the parent alone.
# What was measured:
# [1] = target: T1, α4β1 integrin (Homo sapiens, UniProt P05556+P13612); test: Jurkat-Endothelial Cell Adhesion Assay (Jurkat EC); assay type: cell-based; conditions: Jurkat cell adhesion to IL-1 stimulated endothelial cell monolayers
# T1 construct: a T-cell line, Jurkat, known to express the α4β1 integrin; host or cells: Jurkat T-cell line
# In short: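 BCECF-loaded Jurkat T cells (5 x 10^5) mixed with compound, generally 100, 20, 5 and 1.25 µM, in DMEM-HSA, added to HUVEC monolayers prestimulated 4 h with 0.1 ng/ml IL-1. After washing, adherent-cell fluorescence read; % adhesion relative to no-compound control set at 100%.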
# [2] = target: T2, α4β1 (Homo sapiens, UniProt P05556+P13612); test: Jurkat-CS-1 assay; assay type: cell-based; conditions: Jurkat cell adhesion to immobilized CS-1 derived peptide
# T2 construct: 100 µl of Jurkat cells (2.5 x 10^6 cells/ml) in DMEM plus BSA; host or cells: Jurkat T-cell line
# T2 sequence (P13612 34-1032): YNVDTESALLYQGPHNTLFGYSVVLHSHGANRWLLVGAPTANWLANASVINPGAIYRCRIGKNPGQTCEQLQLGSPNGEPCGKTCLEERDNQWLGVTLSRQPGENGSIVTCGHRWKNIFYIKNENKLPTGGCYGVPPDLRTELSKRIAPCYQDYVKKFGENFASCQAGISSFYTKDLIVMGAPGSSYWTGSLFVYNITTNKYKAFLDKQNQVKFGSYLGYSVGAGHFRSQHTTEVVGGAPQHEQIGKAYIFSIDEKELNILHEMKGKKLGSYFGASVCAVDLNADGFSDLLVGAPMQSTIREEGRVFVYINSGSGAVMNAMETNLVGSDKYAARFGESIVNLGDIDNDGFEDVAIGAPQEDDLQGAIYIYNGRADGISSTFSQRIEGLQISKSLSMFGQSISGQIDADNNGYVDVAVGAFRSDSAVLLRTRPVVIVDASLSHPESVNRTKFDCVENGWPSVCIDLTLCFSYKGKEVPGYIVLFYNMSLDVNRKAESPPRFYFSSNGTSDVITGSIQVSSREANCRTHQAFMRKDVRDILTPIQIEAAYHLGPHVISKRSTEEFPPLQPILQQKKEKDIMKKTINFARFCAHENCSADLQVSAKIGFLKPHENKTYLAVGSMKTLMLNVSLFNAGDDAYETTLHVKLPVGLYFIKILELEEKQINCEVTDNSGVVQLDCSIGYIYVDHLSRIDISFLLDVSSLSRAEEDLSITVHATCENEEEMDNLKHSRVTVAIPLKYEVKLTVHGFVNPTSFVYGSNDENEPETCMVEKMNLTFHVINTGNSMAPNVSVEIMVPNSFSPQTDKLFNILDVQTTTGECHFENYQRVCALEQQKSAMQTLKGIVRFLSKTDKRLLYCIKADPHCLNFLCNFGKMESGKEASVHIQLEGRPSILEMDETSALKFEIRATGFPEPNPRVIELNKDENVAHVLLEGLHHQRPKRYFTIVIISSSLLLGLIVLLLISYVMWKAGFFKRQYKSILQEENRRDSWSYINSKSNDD
# T2 sequence (P05556 21-798): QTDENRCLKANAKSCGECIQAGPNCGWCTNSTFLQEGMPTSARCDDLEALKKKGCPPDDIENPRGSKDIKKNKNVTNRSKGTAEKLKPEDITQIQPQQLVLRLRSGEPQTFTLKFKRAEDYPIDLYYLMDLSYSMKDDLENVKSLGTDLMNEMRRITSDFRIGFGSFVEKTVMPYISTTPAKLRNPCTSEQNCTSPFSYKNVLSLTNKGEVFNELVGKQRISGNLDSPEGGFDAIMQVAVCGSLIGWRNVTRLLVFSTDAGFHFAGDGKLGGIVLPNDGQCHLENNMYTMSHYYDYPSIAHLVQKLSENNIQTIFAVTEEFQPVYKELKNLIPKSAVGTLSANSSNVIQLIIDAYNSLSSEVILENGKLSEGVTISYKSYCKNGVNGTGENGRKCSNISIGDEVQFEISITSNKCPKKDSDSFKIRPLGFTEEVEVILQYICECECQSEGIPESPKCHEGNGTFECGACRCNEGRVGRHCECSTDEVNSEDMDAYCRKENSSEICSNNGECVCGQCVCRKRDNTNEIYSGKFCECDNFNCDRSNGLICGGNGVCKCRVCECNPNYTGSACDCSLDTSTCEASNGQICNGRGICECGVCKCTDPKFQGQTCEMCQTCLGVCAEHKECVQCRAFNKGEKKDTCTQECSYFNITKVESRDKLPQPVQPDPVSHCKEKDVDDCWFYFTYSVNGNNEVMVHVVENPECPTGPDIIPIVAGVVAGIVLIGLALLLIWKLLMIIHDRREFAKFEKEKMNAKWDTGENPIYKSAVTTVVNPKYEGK
# T1 sequence (P13612 34-1032): as the sequence (P13612 34-1032) above
# T1 sequence (P05556 21-798): as the sequence (P05556 21-798) above
smiles,measurement,setting,value
"CC1(C)CC(C(=O)O)CC/C1=C\C(=O)N[C@@H](Cc1ccc(NC(=O)c2c(Cl)cccc2Cl)cc1)C(=O)O (stereo partly drawn) [Example 128, N-[(1E)-4-Carboxy-2,2-dimethyl-1-cyclohexylideneacetyl]-4-[(2,6-dichlorobenzoyl)amino]-L-phenylalanine]",IC50,[1],800 to 5000 nM
same,IC50,[2],80 to 500 nM
O=C(NC1CCCCC1C(=O)NC(Cc1ccc(NC(=O)c2c(Cl)cccc2Cl)cc1)C(=O)O)c1cccnc1 (centres unmarked) [Example 79],IC50,[1],800 to 5000 nM
same,IC50,[2],80 to 500 nM
COc1ccc(C(=O)NC2(C(=O)N[C@@H](Cc3ccc(NC(=O)c4c(Cl)cccc4Cl)cc3)C(=O)O)CCCCC2)cc1OC [Example 55],IC50,[1],800 to 5000 nM
same,IC50,[2],80 to 500 nM
O=C(Nc1ccc(C[C@H](NC(=O)C2(NC(=O)C3CCCC(C(=O)O)C3)CCCCC2)C(=O)O)cc1)c1c(Cl)cccc1Cl (some centres unmarked) [Example 52],IC50,[1],800 to 5000 nM
same,IC50,[2],≤ 80 nM
"CC1=C(C(=O)N[C@@H](Cc2ccc(NC(=O)c3c(Cl)cccc3Cl)cc2)C(=O)O)C(C)(C)CC/C1=C\C(=O)O [Example 118, N-[[(3E)-3-Carboxymethylene-2,6,6-trimethyl-1-cyclohexen-1-yl]carbonyl]-4-[(2,6-dichlorobenzoyl)amino]-L-phenylalanine]",IC50,[1],≤ 800 nM
same,IC50,[2],≤ 80 nM
O=C(Nc1ccc(C[C@H](NC(=O)C2(NC(=O)C3CCCO3)CCCCC2)C(=O)O)cc1)c1c(Cl)cccc1Cl (some centres unmarked) [Example 68],IC50,[1],≤ 800 nM
same,IC50,[2],80 to 500 nM
O=C(NC1(C(=O)N[C@@H](Cc2ccc(NC(=O)c3c(Cl)cccc3Cl)cc2)C(=O)O)CCCCC1)c1cccnc1 [Example 61],IC50,[1],≤ 800 nM
same,IC50,[2],80 to 500 nM
"O=C(O)/C=C1\CCCc2cc(C(=O)N[C@@H](Cc3ccc(NC(=O)c4c(Cl)cccc4Cl)cc3)C(=O)O)ccc21 [Example 135, N-[[(5E)-5-Carboxymethylene-7,8-dihydro-2(6H)-naphthyl]carbonyl]-4-[(2,6-dichlorobenzoyl)amino]-L-phenylalanine sodium salt]",IC50,[1],5000 to 10000 nM
same,IC50,[2],500 to 1000 nM
O=C(NC1(C(=O)N[C@@H](Cc2ccc(NC(=O)c3c(Cl)cccc3Cl)cc2)C(=O)O)CC2CCC1C2)c1cc(O)c2ccccc2n1 (some centres unmarked) [Example 73],IC50,[1],800 to 5000 nM
same,IC50,[2],500 to 1000 nM
O=C(Nc1ccc(C[C@H](NC(=O)C2(NC(=O)C3CCOC3)CC3CCC2C3)C(=O)O)cc1)c1c(Cl)cccc1Cl (some centres unmarked) [Example 78],IC50,[1],≤ 800 nM
same,IC50,[2],80 to 500 nM
